According to patent publication US9963434B2, “N-arylmethyl sulfonamide negative modulators of NR2A” (LUC THERAPEUTICS, priority 2013, dated 2018):
Where two headings read alike, the source gives them in different places.

Molecular target: NR1/NR2A (Homo sapiens (Human), UniProt Q05586+Q12879)
Test: FDSS Ca2+ influx inhibition assay in HEK293 cells expressing NR1/NR2A
Type: cell-based
Settings: 3 μM glutamate, 3 μM glycine, 1 mM Ca2+
Outline: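 Fluo-8-loaded HEK293 NR1/NR2A cells preincubated 10 min with compound at 10 μM final (0.1% DMSO) in Ca2+/Mg2+-free HBSS with 20 mM HEPES. Stimulated with 3 μM glutamate, 3 μM glycine, 1 mM Ca2+; FDSS recording for 3 min, end/baseline fluorescence ratio compared with MK801.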

[1] = inhibition relative to MK801, read-out: NR2A IC50

NR1/NR2A, sequence (Q12879 23-1464, other chains not shown): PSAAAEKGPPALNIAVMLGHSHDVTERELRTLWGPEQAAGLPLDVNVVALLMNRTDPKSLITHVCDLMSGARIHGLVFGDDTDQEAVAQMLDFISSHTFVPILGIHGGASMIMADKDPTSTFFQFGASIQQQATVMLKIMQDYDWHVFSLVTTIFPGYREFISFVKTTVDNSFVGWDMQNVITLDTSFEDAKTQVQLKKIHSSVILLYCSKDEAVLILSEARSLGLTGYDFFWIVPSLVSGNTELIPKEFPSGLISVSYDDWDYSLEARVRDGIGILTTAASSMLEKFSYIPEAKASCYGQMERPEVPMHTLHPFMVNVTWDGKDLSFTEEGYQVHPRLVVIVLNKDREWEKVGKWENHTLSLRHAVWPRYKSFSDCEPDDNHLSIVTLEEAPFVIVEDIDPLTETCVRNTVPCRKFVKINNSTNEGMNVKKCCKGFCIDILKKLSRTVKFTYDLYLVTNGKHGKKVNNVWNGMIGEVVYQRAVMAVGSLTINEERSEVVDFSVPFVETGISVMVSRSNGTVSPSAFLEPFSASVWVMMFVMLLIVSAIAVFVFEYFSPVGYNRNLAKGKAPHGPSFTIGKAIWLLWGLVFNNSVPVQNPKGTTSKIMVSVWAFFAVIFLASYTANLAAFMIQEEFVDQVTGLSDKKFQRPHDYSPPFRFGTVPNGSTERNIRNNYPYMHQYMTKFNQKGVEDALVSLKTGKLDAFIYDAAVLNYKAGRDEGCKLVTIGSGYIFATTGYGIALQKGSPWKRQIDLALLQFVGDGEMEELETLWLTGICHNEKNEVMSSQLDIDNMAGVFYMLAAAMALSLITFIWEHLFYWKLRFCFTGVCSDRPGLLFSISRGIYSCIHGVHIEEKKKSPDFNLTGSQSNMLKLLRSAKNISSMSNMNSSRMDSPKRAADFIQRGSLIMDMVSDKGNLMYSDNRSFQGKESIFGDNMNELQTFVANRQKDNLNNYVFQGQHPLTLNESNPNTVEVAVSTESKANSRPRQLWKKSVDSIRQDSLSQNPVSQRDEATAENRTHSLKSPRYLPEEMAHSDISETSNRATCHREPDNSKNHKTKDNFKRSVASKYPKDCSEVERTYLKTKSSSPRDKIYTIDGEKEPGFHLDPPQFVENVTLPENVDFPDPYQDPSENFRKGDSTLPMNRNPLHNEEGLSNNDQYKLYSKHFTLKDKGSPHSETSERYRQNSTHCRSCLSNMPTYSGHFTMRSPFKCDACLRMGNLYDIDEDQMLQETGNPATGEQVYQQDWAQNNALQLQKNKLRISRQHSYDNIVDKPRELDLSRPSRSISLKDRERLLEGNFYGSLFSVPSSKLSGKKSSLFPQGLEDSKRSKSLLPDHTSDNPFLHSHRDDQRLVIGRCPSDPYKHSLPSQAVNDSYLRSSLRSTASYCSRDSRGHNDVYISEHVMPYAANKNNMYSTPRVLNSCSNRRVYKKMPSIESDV

| IC50 [1] [µM] | IC50 (read-out: Binned Activity) [µM] | Compound |
| --- | --- | --- |
| 10 | > 10 | Cc1nc(C)c(CNC(=O)c2cnc(CNS(=O)(=O)c3ccc(F)c(Cl)c3)cn2)s1 [5-(3-chloro-4-fluorobenzenesulfon-amidomethyl)-N-[(dimethyl-1,3-thiazol-5-yl)methyl]pyrazine-2-carboxamide] |
| 10 | > 10 | Cc1nc(C)c(CNC(=O)c2ccc(CNS(=O)(=O)c3ccc(F)c(Cl)c3)cn2)s1 [5-(3-chloro-4-fluorobenzenesulfon-amidomethyl)-N-[(dimethyl-1,3-thiazol-5-yl)methyl]pyridine-2-carboxamide] |
| 10 | > 10 | O=C(NCc1ncccc1C(F)(F)F)c1cnc(CNS(=O)(=O)c2ccc(F)c(Cl)c2)cn1 [5-(3-chloro-4-fluorobenzenesulfon-amidomethyl)-N-{[3-(trifluoromethyl)pyridin-2-yl]methyl}pyrazine-2-carboxamide] |
| 10 | > 10 | O=C(NCc1ncccc1C(F)(F)F)c1ccc(CNS(=O)(=O)c2ccc(F)c(Cl)c2)cn1 [5-(3-chloro-4-fluorobenzenesulfon-amidomethyl)-N-{[3-(trifluoromethyl)pyridin-2-yl]methyl}pyridine-2-carboxamide] |
| 10 | > 10 | O=C(NCc1ncc(C(F)(F)F)cc1Cl)c1cnc(CNS(=O)(=O)c2ccc(F)c(Cl)c2)cn1 [5-(3-chloro-4-fluorobenzenesulfon-amidomethyl)-N-{[3-chloro-5-(trifluoromethyl)pyridin-2-yl]methyl}pyrazine-2-carboxamide] |
| 10 | > 10 | O=C(NCc1ncc(C(F)(F)F)cc1Cl)c1ccc(CNS(=O)(=O)c2ccc(F)c(Cl)c2)cn1 [5-(3-chloro-4-fluorobenzenesulfon-amidomethyl)-N-{[3-chloro-5-(trifluoromethyl)pyridin-2-yl]methyl}pyridine-2-carboxamide] |
| – | 1 to 10 | COc1cccc(CNC(=O)c2ccc(CNS(=O)(=O)c3ccc(F)c(Cl)c3)cn2)c1 [5-(3-chloro-4-fluorobenzenesulfon-midomethyl)-N-[(3-methoxyphenyl)methyl] pyridine-2-carboxamide] |
| – | 0.1 to 1 | Cc1ncc(CNC(=O)c2cnc(CNS(=O)(=O)c3cccc(Cl)c3)cn2)s1 [5-(3-chlorobenzenesulfon-amidomethyl)-N-[(2-methyl-1,3-thiazol-5-yl)methyl]pyrazine-2-carboxamide] |
| – | 1 to 10 | Cc1ncc(CNC(=O)c2ccc(CNS(=O)(=O)c3cccc(Cl)c3)cn2)s1 [5-(3-chlorobenzenesulfon-amidomethyl)-N-[(2-methyl-1,3-thiazol-5-yl)methyl]pyridine-2-carboxamide] |
| – | < 0.1 | Cc1ncc(CNC(=O)c2cnc(CNS(=O)(=O)c3cccc(Cl)c3)c(C)n2)s1 [5-(3-chlorobenzenesulfon-midomethyl)-6-methyl-N-[(2-methyl-1,3-thiazol-5-yl)methyl]pyrazine-2-carboxamide] |
| – | 1 to 10 | Cc1ncc(CNC(=O)c2cnc(CNS(=O)(=O)c3ccc(Cl)c(F)c3)c(C)n2)s1 [5-(4-chloro-3-fluorobenzenesulfon-amidomethyl)-6-methyl-N-[(2-methyl-1,3-thiazol-5-yl)methyl]pyrazine-2-carboxamide] |
| 10 | > 10 | Cc1ncc(CNC(=O)c2cnc(CNS(=O)(=O)c3ccc(Cl)c(F)c3)cn2)s1 [5-(4-chloro-3-fluorobenzenesulfon-amidomethyl)-N-[(2-methyl-1,3-thiazol-5-yl)methyl]pyrazine-2-carboxamide] |
| – | 1 to 10 | Cc1ncc(CNC(=O)c2ccc(CNS(=O)(=O)c3ccc(Cl)c(F)c3)cn2)s1 [5-(4-chloro-3-fluorobenzenesulfon-amidomethyl)-N-[(2-methyl-1,3-thiazol-5-yl)methyl]pyridine-2-carboxamide] |
| – | 0.1 to 1 | Cc1ncc(CNC(=O)c2cnc(CNS(=O)(=O)c3ccc(F)cc3)c(C)n2)s1 [5-(4-fluorobenzenesulfon-amidomethyl)-6-methyl-N-[(2-methyl-1,3-thiazol-5-yl)methyl]pyrazine-2-carboxamide] |
| – | 1 to 10 | Cc1ncc(CNC(=O)c2ccc(CNS(=O)(=O)c3ccc(F)cc3)cn2)s1 [5-(4-fluorobenzenesulfon-amidomethyl)-N-[(2-methyl-1,3-thiazol-5-yl)methyl]pyridine-2-carboxamide] |
| – | 1 to 10 | Cc1ncc(CNC(=O)c2cnc(CNS(=O)(=O)c3ccc(F)cc3)cn2)s1 [5-(4-fluorobenzenesulfon-midomethyl)-N-[(2-methyl-1,3-thiazol-5-yl)methyl]pyrazine-2-carboxamide] |
| – | 1 to 10 | Cc1ncc(CNC(=O)c2cnc(CNS(=O)(=O)c3cc(Cl)ccc3F)c(C)n2)s1 [5-(5-chloro-2-fluorobenzenesulfon-amidomethyl)-6-methyl-N-[(2-methyl-1,3-thiazol-5-yl)methyl]pyrazine-2-carboxamide] |
| 10 | > 10 | Cc1ncc(CNC(=O)c2cnc(CNS(=O)(=O)c3cc(Cl)ccc3F)cn2)s1 [5-(5-chloro-2-fluorobenzenesulfon-amidomethyl)-N-[(2-methyl-1,3-thiazol-5-yl)methyl]pyrazine-2-carboxamide] |

| IC50 [1] [µM] | IC50 (read-out: Binned Activity) [µM] | Compound |
| --- | --- | --- |
| 10 | > 10 | Cc1ncc(CNC(=O)c2ccc(CNS(=O)(=O)c3cc(Cl)ccc3F)cn2)s1 [5-(5-chloro-2-fluorobenzenesulfon-amidomethyl)-N-[(2-methyl-1,3-thiazol-5-yl)methyl]pyridine-2-carboxamide] |
| 10 | > 10 | Cc1ncc(CNC(=O)c2ccc(CNS(=O)(=O)c3ccc(Cl)s3)cn2)s1 [5-(5-chlorothiophene-2-sulfonamidomethyl)-N-[(2-methyl-1,3-thiazol-5-yl)methyl]pyridine-2-carboxamide] |
| 10 | > 10 | Cc1ncc(CNC(=O)c2ccc(CNS(=O)(=O)c3ccc(Cl)nc3)cn2)s1 [5-(6-chloropyridine-3-sulfonamidomethyl)-N-[(2-methyl-1,3-thiazol-5-yl)methyl]pyridine-2-carboxamide] |
| 10 | > 10 | Cc1ncc(CNC(=O)c2ccc(CNS(=O)(=O)c3ccc(Cl)c4nonc34)cn2)s1 [5-(7-chloro-2,1,3-benzoxadiazole-4-sulfonamidomethyl)-N-[(2-methyl-1,3-thiazol-5-yl)methyl]pyridine-2-carboxamide] |
| 10 | > 10 | Cc1ncc(CNC(=O)c2ccc(CNS(=O)(=O)c3ccoc3)cn2)s1 [5-(furan-3-sulfonamidomethyl)-N-[(2-methyl-1,3-thiazol-5-yl)methyl]pyridine-2-carboxamide] |
| 10 | > 10 | Cc1ncc(CNC(=O)c2cnc(CNC(=O)c3ccc(Cl)cc3Cl)cn2)s1 [5-{[(2,4-dichlorophenyl)form-amido]methyl}-N-[(2-methyl-1,3-thiazol-5-yl)methyl]pyrazine-2-carboxamide] |
| 10 | > 10 | Cc1ncc(CNC(=O)c2ccc(CNC(=O)c3ccc(Cl)cc3Cl)cn2)s1 [5-{[(2,4-dichlorophenyl)form-amido]methyl}-N-[(2-methyl-1,3-thiazol-5-yl)methyl]pyridine-2-carboxamide] |
| 10 | > 10 | Cc1ncc(CNC(=O)c2cnc(CNC(=O)c3ccc(Cl)c(Cl)c3)cn2)s1 [5-{[(3,4-dichlorophenyl)form-amido]methyl}-N-[(2-methyl-1,3-thiazol-5-yl)methyl]pyrazine-2-carboxamide] |
| 10 | > 10 | Cc1ncc(CNC(=O)c2ccc(CNC(=O)c3ccc(Cl)c(Cl)c3)cn2)s1 [5-{[(3,4-dichlorophenyl)form-amido]methyl}-N-[(2-methyl-1,3-thiazol-5-yl)methyl]pyridine-2-carboxamide] |
| 10 | > 10 | Cc1ncc(CNC(=O)c2cnc(CNC(=O)c3cc(F)cc(F)c3)c(C)n2)s1 [5-{[(3,5-difluorophenyl)form-amido]methyl}-6-methyl-N-[(2-methyl-1,3-thiazol-5-yl)methyl]pyrazine-2-carboxamide] |
| 10 | > 10 | Cc1ncc(CNC(=O)c2cnc(CNC(=O)c3cc(F)cc(F)c3)cn2)s1 [5-{[(3,5-difluorophenyl)form-amido]methyl}-N-[(2-methyl-1,3-thiazol-5-yl)methyl]pyrazine-2-carboxamide] |
| 10 | > 10 | Cc1ncc(CNC(=O)c2ccc(CNC(=O)c3cc(F)cc(F)c3)cn2)s1 [5-{[(3,5-difluorophenyl)form-amido]methyl}-N-[(2-methyl-1,3-thiazol-5-yl)methyl]pyridine-2-carboxamide] |
| 10 | > 10 | Cc1ncc(CNC(=O)c2cnc(CNC(=O)c3cccc(Cl)c3C)c(C)n2)s1 [5-{[(3-chloro-2-methylphenyl)formamido]methyl}-6-methyl-N-[(2-methyl-1,3-thiazol-5-yl)methyl]pyrazine-2-carboxamide] |
| 10 | > 10 | Cc1ncc(CNC(=O)c2ccc(CNC(=O)c3cccc(Cl)c3C)cn2)s1 [5-{[(3-chloro-2-methylphenyl)formamido]methyl}-N-[(2-methyl-1,3-thiazol-5-yl)methyl]pyridine-2-carboxamide] |
| 10 | > 10 | Cc1ncc(CNC(=O)c2cnc(CNC(=O)c3cccc(Cl)c3)cn2)s1 [5-{[(3-chlorophenyl)formamido]methyl}-N-[(2-methyl-1,3-thiazol-5-yl)methyl]pyrazine-2-carboxamide] |
| 10 | > 10 | Cc1ncc(CNC(=O)c2cnc(CNC(=O)c3cccc(C#N)c3)c(C)n2)s1 [5-{[(3-cyanophenyl)formamido]methyl}-6-methyl-N-[(2-methyl-1,3-thiazol-5-yl)methyl]pyrazine-2-carboxamide] |
| 10 | > 10 | Cc1ncc(CNC(=O)c2cnc(CNC(=O)c3cccc(C#N)c3)cn2)s1 [5-{[(3-cyanophenyl)formamido]methyl}-N-[(2-methyl-1,3-thiazol-5-yl)methyl]pyrazine-2-carboxamide] |
